This passage reports GI50 and TGI results from PubChem BioAssay (NCI).

Common to all, as to test: growth of human tumour cells (NCI), 48 h
Assay [1] deals with BT-549 breast.
The subject of assay [2] is LOX IMVI melanoma.
The test system of assay [3] is HOP-62 NSCLC.
Assay [4] deals with SNB-75 CNS.
The subject of assay [5] is CAKI-1 renal.
Assay [6] has as its system HOP-92 NSCLC.
Assay [7] has as its system HS 578T breast.
The test system of assay [8] is SK-MEL-5 melanoma.
In assay [9] the test system is OVCAR-5 ovarian.
The subject of assay [10] is PC-3 prostate.

Several values for one entry are separate records, joined by “and”; a condition that tells them apart may be missing. Equal values may be shown once.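 The compound was tested at five concentrations on cells cultured in 96-well plates, with a 48-hour exposure period. GI50: concentration for 50% inhibition of growth. TGI: total growth inhibition.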

For the compound `CC(C)[C@@]12C[C@@H](OC(=O)COC(=O)c3ccccc3)[C@@](C)(O1)[C@@H]1CC[C@@H](C)[C@H]1[C@@H]2OC(=O)/C=C/c1ccccc1`, the GI50 was 0.304 µM in assay [1]; greater than 63.4 µM in assay [2]; greater than 100 µM in assay [3]; greater than 100 µM in [4]; 0.0812 µM in assay [5]; 33.5 µM in [6]. Besides, the GI50 in assay [7] was 0.0135 µM; in [8], greater than 100 µM; in assay [9], greater than 100 µM; in assay [10] it was 22.7 µM. The TGI in [1] was greater than 100 µM; in assay [2], greater than 100 µM; in assay [3], greater than 100 µM; in assay [4], greater than 100 µM; in assay [5] it was 2.87 µM; in [6], greater than 100 µM. Besides, the TGI in assay [7] was 0.0701 µM; in assay [8] it was greater than 100 µM; in assay [9] it was greater than 100 µM; in assay [10] it was greater than 100 µM.
In the case of `CC(=O)Oc1ccc(C2OC(c3ccc4ccccc4c3OC(C)=O)=NN2C(C)=O)c(OC(C)=O)c1` (stereo not given), the GI50 in [1] is 0.841 µM; in assay [2], 0.301 µM; in assay [3] it was 0.513 µM; in assay [4], 1.13 µM; in [5], 0.24 µM; in [6], 0.252 µM. Besides, the GI50 in assay [7] is 12 µM; in [8] it was 0.321 µM; in assay [9] it was 2.22 µM; in assay [10] it was 0.448 µM. Moreover, the TGI in assay [1] is 76.3 µM; in assay [2] it was 33.8 µM; in assay [3], greater than 100 µM; in [4], greater than 31.4 µM; in assay [5], 5.44 µM; in assay [6] it was greater than 29.5 µM. Moreover, the TGI in assay [7] is greater than 100 µM; in [8] it was greater than 32.3 µM; in [9], greater than 100 µM; in assay [10], greater than 59.6 µM.
Regarding `O=S(=O)(NCCNc1nccc(-c2c(-c3ccc(F)cc3)nc3sccn23)n1)c1ccc(O)cc1`, the GI50 was 3.14 µM in [1]; 1.88 µM in [2]; 14.3 µM in assay [3]; 1.68 µM in [4]; 4.07 µM in assay [5]; 1.31 µM in [6]. Moreover, the GI50 in [7] was 6.48 µM; in assay [8], 1.39 µM; in [9], 11.8 µM; in assay [10], 4.51 µM. Moreover, the TGI in [1] worked out at 19.1 µM; in assay [2] it was 49.6 µM; in [3] it was 85.6 µM; in assay [4], 13.1 µM; in [5], 48.3 µM; in [6], 9.07 µM. Also, the TGI in [7] is 42.7 µM; in [8], 10.7 µM; in [9], greater than 100 µM; in [10], 37.6 µM.
As to `Cn1c2c(c3ccccc31)CCN1C[C@@H]3CCCC[C@H]3C[C@@H]21`, the GI50 in assay [1] is 3.04 µM; in assay [2] it was 2.99 µM; in [3] it was 3.32 µM; in assay [4], 4.32 µM; in assay [5], 2.92 µM; in [6], 3.44 µM. Besides, the GI50 in assay [7] is 4.51 µM; in assay [8] it was 1.42 µM; in assay [9], 3.82 µM; in assay [10], 3.31 µM. Also, the TGI in [1] was 9.19 µM; in assay [2], greater than 37.3 µM; in [3], greater than 36.2 µM; in [4], greater than 100 µM; in [5] it was greater than 29.5 µM; in assay [6] it was 34.2 µM. Besides, the TGI in assay [7] was greater than 100 µM; in [8], 4.07 µM; in [9], greater than 100 µM; in assay [10], greater than 100 µM.
Turning to `CC[C@]12C=CCN3CC[C@]4(C(=C(C(=O)OC)C1)Nc1cc5c(cc14)[C@@H]1[C@H](O5)[C@@H](O)[C@@]4(CC)CC(C(=O)OC)=C5Nc6ccccc6[C@@]56CCN1[C@@H]46)[C@@H]32`, the GI50 in [1] was 0.913 µM and 2.49 µM; in assay [2], 0.39 µM; in assay [3], 0.319 µM; in [4], 0.0335 µM and 0.161 µM; in assay [5], 0.0819 µM and 0.268 µM; in assay [6] it was 0.114 µM and 0.138 µM. Moreover, the GI50 in assay [7] is 0.344 µM and 0.218 µM; in [8] it was 0.662 µM and 0.348 µM; in assay [9] it was 0.749 µM and 0.826 µM; in assay [10] it was 0.435 µM and 0.776 µM. Also, the TGI is 25 µM and > 100 µM in [1]; 2.35 µM in assay [2]; greater than 100 µM in assay [3]; 25 µM and 18.7 µM in [4]; 8.09 µM and 37.7 µM in assay [5]; 12.4 µM and 9.48 µM in [6]. Also, the TGI in assay [7] is 25 µM and > 100 µM; in assay [8] it was 4.01 µM and 1.48 µM; in assay [9] it was 25 µM and 21.3 µM; in [10] it was 25 µM and 16.2 µM.
